Common to all, as to format: functional, cell-based
For assay [1], the system named is PC-3. Put plainly: Antiproliferative activity against human PC3 cells by MTT assay.
Assay [2] has as its system HeLa. Nature of the assay: Antiproliferative activity against human HeLa cells by MTT assay.
Assay [3] relates to MCF7. Put plainly: Antiproliferative activity against human MCF7 cells by MTT assay.

Bounds are passed on as bounds.

Consider `C[C@]12CCC(=O)N[C@@H]1CC[C@@H]1[C@@H]2CC[C@]2(C)O[C@H](n3cnc4c(NCc5ccccc5)ncnc43)CC[C@@H]12`, for which the IC50 in assay [1] is 20.6 µM; in assay [2], greater than 100 µM; in assay [3], greater than 100 µM.
With `C[C@]12CCC(=O)N[C@@H]1CC[C@@H]1[C@@H]2CC[C@]2(C)O[C@H](n3cnc4c(NCCO)nc(Cl)nc43)CC[C@@H]12`, the IC50 in assay [1], in assay [2] and in assay [3] was greater than 100 µM throughout.
On to `C[C@]12CCC(=O)N[C@@H]1CC[C@@H]1[C@@H]2CC[C@]2(C)O[C@H](n3cnc4c(N(CCO)CCO)ncnc43)CC[C@@H]12`, for which the IC50 in assay [1], in assay [2] and in assay [3] was greater than 100 µM in each case.
Consider `C[C@]12CCC(=O)N[C@@H]1CC[C@@H]1[C@@H]2CC[C@]2(C)O[C@H](n3cnc4c(N(CCO)CCO)nc(Cl)nc43)CC[C@@H]12`, for which the IC50 in assay [1], in assay [2] and in assay [3] was greater than 100 µM throughout.
As for `C[C@]12CCC(=O)N[C@@H]1CC[C@@H]1[C@@H]2CC[C@]2(C)O[C@H](n3cnc4c(NCc5ccccc5)nc(Cl)nc43)CC[C@@H]12`, the IC50 stood at 17.9 µM in assay [1], 2.69 µM in assay [2] and 12.8 µM in assay [3].
Take `Cc1ccc(CNc2ncnc3c2ncn3[C@@H]2CC[C@H]3[C@@H]4CC[C@H]5NC(=O)CC[C@]5(C)[C@H]4CC[C@]3(C)O2)cc1`: the IC50 is 44.2 µM in assay [1], 28.2 µM in assay [2] and 32.7 µM in assay [3].
For the compound `Cc1ccc(CNc2nc(Cl)nc3c2ncn3[C@@H]2CC[C@H]3[C@@H]4CC[C@H]5NC(=O)CC[C@]5(C)[C@H]4CC[C@]3(C)O2)cc1`, the figures for the IC50 in assay [1], in assay [2] and in assay [3] were 26.6 µM, 67.2 µM and 12.9 µM, respectively.
Take `COc1ccc(CNc2ncnc3c2ncn3[C@@H]2CC[C@H]3[C@@H]4CC[C@H]5NC(=O)CC[C@]5(C)[C@H]4CC[C@]3(C)O2)cc1`: the concentration for half-maximal inhibition (IC50) in assay [1] is greater than 100 µM; in assay [2] it was 38.7 µM; in assay [3], 60.3 µM.
Turning to `COc1ccc(CNc2nc(Cl)nc3c2ncn3[C@@H]2CC[C@H]3[C@@H]4CC[C@H]5NC(=O)CC[C@]5(C)[C@H]4CC[C@]3(C)O2)cc1`, the values for the IC50 in assay [1], in assay [2] and in assay [3] were greater than 100 µM, 10.1 µM and greater than 100 µM, respectively.
On to `C[C@]12CCC(=O)N[C@@H]1CC[C@@H]1[C@@H]2CC[C@]2(C)O[C@H](n3cnc4c(NCc5ccc(F)cc5)ncnc43)CC[C@@H]12`, for which the IC50 in assay [1] is 91.5 µM; in assay [2], greater than 100 µM; in assay [3] it was 34.8 µM.
The corresponding values for `C[C@]12CCC(=O)N[C@@H]1CC[C@@H]1[C@@H]2CC[C@]2(C)O[C@H](n3cnc4c(NCc5ccc(F)cc5)nc(Cl)nc43)CC[C@@H]12` are greater than 100 µM, 59.1 µM and 13.5 µM.
For `CCN(CC)c1ncnc2c1ncn2[C@@H]1CC[C@H]2[C@@H]3CC[C@H]4NC(=O)CC[C@]4(C)[C@H]3CC[C@]2(C)O1`, the IC50 was greater than 100 µM in assay [1], 33.8 µM in assay [2] and greater than 100 µM in assay [3].
As for `CCN(CC)c1nc(Cl)nc2c1ncn2[C@@H]1CC[C@H]2[C@@H]3CC[C@H]4NC(=O)CC[C@]4(C)[C@H]3CC[C@]2(C)O1`, the IC50 in assay [1] came out at 58.1 µM; in assay [2] it was 31.1 µM; in assay [3] it was 16.4 µM.
With `C[C@]12CCC(=O)N[C@@H]1CC[C@@H]1[C@@H]2CC[C@]2(C)O[C@H](n3cnc4c(NN)ncnc43)CC[C@@H]12`, the IC50 was 87.2 µM in assay [1], greater than 100 µM in assay [2] and 34.6 µM in assay [3].
Turning to `C[C@]12CCC(=O)N[C@@H]1CC[C@@H]1[C@@H]2CC[C@]2(C)O[C@H](n3cnc4c(NN)nc(Cl)nc43)CC[C@@H]12`, the half-maximal inhibitory concentration (IC50) in assay [1] was 2.99 µM; in assay [2], greater than 100 µM; in assay [3], greater than 100 µM.
Regarding `CN(C)c1ncnc2c1ncn2[C@@H]1CC[C@H]2[C@@H]3CC[C@H]4NC(=O)CC[C@]4(C)[C@H]3CC[C@]2(C)O1`, the results for the IC50 in assay [1], in assay [2] and in assay [3] were greater than 100 µM, 70.5 µM and 57.7 µM, respectively.
Taken in the same sequence, the figures for `CN(C)c1nc(Cl)nc2c1ncn2[C@@H]1CC[C@H]2[C@@H]3CC[C@H]4NC(=O)CC[C@]4(C)[C@H]3CC[C@]2(C)O1` were greater than 100 µM, 61.3 µM and greater than 100 µM.
Regarding `CC(CO)Nc1nc(Cl)nc2c1ncn2[C@@H]1CC[C@H]2[C@@H]3CC[C@H]4NC(=O)CC[C@]4(C)[C@H]3CC[C@]2(C)O1` (stereo partly specified), the IC50 in assay [1] was 2.84 µM; in assay [2] it was greater than 100 µM; in assay [3], greater than 100 µM.
In the case of `C[C@]12CCC(=O)N[C@@H]1CC[C@@H]1[C@@H]2CC[C@]2(C)O[C@H](n3cnc4c(NCCN)ncnc43)CC[C@@H]12`, the IC50 was greater than 100 µM in assay [1], 66.2 µM in assay [2] and greater than 100 µM in assay [3].
On to `C[C@]12CCC(=O)N[C@@H]1CC[C@@H]1[C@@H]2CC[C@]2(C)O[C@H](n3cnc4c(NCCN)nc(Cl)nc43)CC[C@@H]12`, for which the IC50 in assay [1] stood at 63.4 µM; in assay [2], 22.7 µM; in assay [3], 70.3 µM.
Taken in the same sequence, the figures for `C[C@]12CCC(=O)N[C@@H]1CC[C@@H]1[C@@H]2CC[C@]2(C)O[C@H](n3cnc4c(NCCO)ncnc43)CC[C@@H]12` were 49.2 µM, greater than 100 µM and greater than 100 µM.
Regarding `CC(CO)Nc1ncnc2c1ncn2[C@@H]1CC[C@H]2[C@@H]3CC[C@H]4NC(=O)CC[C@]4(C)[C@H]3CC[C@]2(C)O1` (stereo partly specified), the IC50 was 15.8 µM in assay [1], greater than 100 µM in assay [2] and greater than 100 µM in assay [3].
